We go through 2 compounds from patent US5461054A, “Anthracene-spiro-pyrrolindines” (Bayer Aktiengesellschaft, priority 1993, dated 1995).

This assay relates to monocyte-free human T cells. The assay can be described thus: Inhibition of 5-HT-dependent T Cell Proliferation. The format is cell-based. The following applies: PWM (1:200) and 5-HT (100 μm), 7 days, 3H-thymidine incorporation, 33 μM-0.1 μM. An excerpt: The in vitro activity of the compounds according to the invention results from their capability to inhibit T cell proliferation, which is previously stimulated by serotonin.
Inhibition of 5-HT-dependent T Cell Proliferation
Peripheral mononuclear blood cells (PBMC) are obtained from the buffy coat of the blood of healthy subjects. After isolation by means of isolymph gradients (Pharmacia), the PBMC are washed twice and used directly. Purified T cells are obtained by E rosette formation with sheep erythrocytes [cf. Blue, M. L., J. F. Daley, H. Levine, K. A. Craig and S. F. Schlossmann, 1986, Biosynthesis and surface expression of T8 by peripheral blood T4+ cells in vitro, J. Immunol. 137, 1202]. Monocytes are partially removed by adhesion to tissue culture plates or flasks. […] The cultures are treated with 1 μCi of ^3 H-thymidine for 6 h on the 7th day and collected on filter paper, and the incorporated radioactivity is determined by means of liquid scintillation counting.
The test substances are dissolved in 10 mM HCl in order to achieve a final concentration of 1 mM in each case. […] The inhibitory activity of the test substances is expressed as the IC50 in μM. […]
On the technique in general: Uptake of a labelled nucleoside into DNA is a usual measure of proliferation.

Consider `O=C1CC2(CC3c4ccccc4C2c2ccccc23)C(=O)N1CCCN1CCN(c2ccccc2)CC1` (centres unmarked) [Example 2], for which the IC50 – broadly, the point on the concentration scale where inhibition reaches its midpoint – turned out to be 5 µM.

In turn, `O=C1CC2(CC3c4ccccc4C2c2ccccc23)C(=O)N1CCCN1CCN(c2ccc(F)cc2)CC1` (centres unmarked) [Example 1, 1'-{3-[4-(4-Fluorophenyl)-piperazin-1-yl]-propyl}-9,10-dihydro-9,10-ethano-anthracene-11-spiro-3'-pyrrolidine-2',5'-dione] gave an IC50 of 2 µM.
